# Experimental data taken from publication PMC5870190, “A three-in-one-bullet for oesophageal cancer: replication fork collapse, spindle attachment failure and enhanced radiosensitivity generated by a ruthenium(II) metallo-intercalator” (Chemical Science, 2017).
# Experiments:
# [1] = tested on: FLO-1 human oesophageal adenocarcinoma; experiment: MTT assay, FLO-1 cells; assay type: cell-based
# Method: MTT assay. OE21, FLO-1 or hSAEC1-KT cells were seeded in 96 well plates at 20,000 cells/well (for 24 h treatment) or 10,000 cells/well (for 72 h treatment) and allowed to adhere for 24 h before treatment. OE33 cells were seeded in 48 well plates at 40,000 cells/well (24 h treatment) or 20,000 cells/well (72 h treatment). Cancer cell lines were treated with chemicals dissolved in RPMI media for consistency. After incubation, 0.5 mg/ml MTT (thiazolyl blue tetrazolium bromide) dissolved in serum-free medium was added for 60 minutes and the formazan product eluted using acidified isopropanol.
# (§1) The absorbance at 540 nm was quantified by plate reader (reference wavelength 650 nm). The metabolic activity of the cell population was determined as a percentage of a negative (solvent) control. […]
# (§2) For the determination of mutation induction, from the untreated and each treated condition, 2x10^5 cells were plated in 10 x 100 mm dishes in selective media (regular media
# [2] = tested on: V79 Chinese hamster cells; experiment: HPRT forward mutation assay; assay type: cell-based
# Method: propidium iodide (PI) is standard to quantify DNA content using flow cytometry, bleed-through of the MLCT emission of […]
# To remove these artefacts, a higher concentration of Ru1 (100 µM, 10 mins) was additionally applied post-incubation and fixation to treated and control samples, acting as a substitute DNA dye instead of PI. After staining, cells were centrifuged (1000 rpm, 5 mins) and re-suspended in PBS.
# Samples were analysed using a Biosciences LSRII Flow Cytometer using the FL2 channel to collect (recognisable) cell-cycle […]
# profiles. […] A minimum of
# 10,000 cells were counted for each sample and data were processed using FloJo software.
# Microscopy and immunofluorescence. Cells were seeded on ibidi 35 mm µ-dishes (Thistle Scientific), allowed to adhere for 24 h and treated as stated in the main text. Cell media was removed, cells washed with PBS and fixed with formaldehyde (4%, 10 mins). Cells were permeablised with Triton (0.5% in PBS, 5 mins) and washed with PBS. […]
# emission was collected from 500-530 nm to prevent spectral overlap with Ru1 emission. γH2AX foci were counted using […]
# as §1
# Cell cultures were treated as stated, media containing detached/dead cells were removed and retained, and adherent collected by Trypsin and centrifugation. […] Trypan Blue negative and Trypan Blue positive cells were counted by haemocytometer. A minimum of 200 cells were counted for each sample.
# HPRT (hypoxanthine-guanine phosphoribosyl transferase) forward mutation assay. […] The cultures were washed with PBS, cells were detached by trypsin (0.05%) and cell number was determined. […] After 7 days' incubation, the resulting colonies were stained with methylene blue and those containing 100 or more cells were counted. Cloning efficiency was determined and is usually expressed in percent relative to the […]
# MCF7 cells = experiment: Micronuclei formation, MCF7; assay type: cell-based; conditions: MCF7, 40 μM Ru1, 24 h incubation
# Method: Microscopy and immunofluorescence. Cells were seeded on ibidi 35 mm µ-dishes (Thistle Scientific), allowed to adhere for 24 h and treated as stated in the main text. Cell media was removed, cells washed with PBS and fixed with formaldehyde (4%, 10 mins). Cells were permeablised with Triton (0.5% in PBS, 5 mins) and washed with PBS. Samples were blocked with BSA (3% in PBS-T) for 1 h before incubation with primary antibody (either anti-α-tubulin or anti-γ H2AX, 1/500 dilution) in BSA (3% in PBS-T) for 1 h. Samples were washed 3x in PBS-T and incubated with Alexa Fluor-conjugated secondary antibodies (3% in PBS-T, 1 h, 1/250 dilution). After further washing (3x5 min PBS-T) samples were co-stained with DAPI (5 ng/ml, 2 min), fresh PBS added and visualised by confocal microscopy. Samples were visualised using a Zeiss LSM 780 or LSM 710 inverted confocal microscope and EC Plan-Neofluar 40x/1.30 Oil objectives. […]
# as §2
# FLO-1 cells = experiment: Clonogenic survival assay with IR, FLO-1; assay type: cell-based, human; conditions: Ru1 2 μM or Cis 300 nM for 24 h before IR
# Method: Clonogenic survival assay. OE21, OE33 or FLO1 cells were treated with 2 µM Ru1 for 24 h before irradiation with 0-8 Gy using a 137Cs γ-irradiator (IBL637, CIS Bio Int.; dose rate = 0.809 Gy min−1). 1 h after irradiation, cells were detached using Trypsin and re-seeded in 6 well plates at a density of 300 – 20,000 cells/well in triplicate in an incrementally greater number of cells with increasing IR dose to ensure adequate colony formation. Cells were incubated for 7–14 days after re-seeding to allow colony formation before being fixed with 10% methanol, 10% acetic acid and stained with 0.4% methylene blue. OE33 cells required an additional formaldehyde fixation (4% in PBS, 5 mins) step before the addition of methylene blue solution or colony detachment occurred. Colonies containing 50 cells or greater were counted using a Gelcount instrument and accompanying software (Oxford Optronix). Plating efficiencies were determined for each treatment condition and normalised to an untreated control to provide the surviving fraction (S. F.). S.F. versus radiation dose curves were plotted in GraphPad Prism and fit using a second order polynomial function (R2 values > 0.99). Dose modifying factors (DMF) at a SF=0.1 were calculated using the equation: Dose modifying factor (DMF) = IR dose to give S.F. 0.1/IR dose plus compound to give S.F.0.1. […]
substance,measurement,setting,value
[Ru(phen)2(tpphz)]^2+ [Ru1],IC50,"[1]; FLO1, 24 h constant exposure",42 ± 8 µM
same,IC50,"[1]; FLO1, 72 h constant exposure",11.5 ± 2.1 µM
same,M.F. (mutation frequency),[2]; 2 μM of each complex for 24 h,36.7 ± 7.3 6-TG resistant mutations per 1 × 10^5 viable cells
same,Rel. M.F. (ratio of induced to spontaneous mutations),[2]; 2 μM of each complex for 24 h,5.8
same,mutation rate lower than for cisplatin,"[2]; HPRT assay, V79, 2 μM, 24 h",two-fold
same,"Cells with micronuclei, Percentage",MCF7 cells,6.2%
same,S.F.,"FLO-1 cells; FLO-1, IR 0 Gy",0.873
same,S.F.,"FLO-1 cells; FLO-1, IR 2 Gy",0.188
same,S.F.,"FLO-1 cells; FLO-1, IR 4 Gy",0.042
same,S.F.,"FLO-1 cells; FLO-1, IR 6 Gy",0.005
